Results taken from patent US5798350A, “Dopamine receptor ligands” (Allelix Biopharmaceuticals, Inc., priority 1996, dated 1998).

Assays:
[1] = target: T1, human D4 receptor (D4.2 sub-type) (Homo sapiens, UniProt P21917, DEL265-296); assay: D4 receptor binding, displacement of 3H-spiperone; settings: for Ki: human D4 receptor, 3H-spiperone 0.25 nM
T1 construct: expressed in transfected cells; host or cells: HEK 298 (human embryonic kidney) cells, [sic]; homogenate of stably transfected cells
T1 sequence (P21917 with tags, fused parts or gaps DEL265-296): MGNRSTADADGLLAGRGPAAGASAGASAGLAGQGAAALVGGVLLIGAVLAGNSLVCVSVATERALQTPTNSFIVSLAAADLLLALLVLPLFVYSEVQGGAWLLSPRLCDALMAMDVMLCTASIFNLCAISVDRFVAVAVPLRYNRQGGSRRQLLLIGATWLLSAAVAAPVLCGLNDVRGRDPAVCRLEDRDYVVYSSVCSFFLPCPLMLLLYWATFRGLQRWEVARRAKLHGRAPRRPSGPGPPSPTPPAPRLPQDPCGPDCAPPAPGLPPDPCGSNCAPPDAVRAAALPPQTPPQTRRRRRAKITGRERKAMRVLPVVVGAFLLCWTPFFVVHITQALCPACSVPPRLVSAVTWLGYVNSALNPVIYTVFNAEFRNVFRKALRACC
Experimental: (§1) The potency of the test compound to reduce ^3 H-spiperone binding directly correlated to its binding affinity for the receptor.
The cells were then centrifuged in a Sorval centrifuge for 10 minutes, 5000 rpm (GS3 rotor) and the pellets quickly frozen in liquid nitrogen and stored at -80° C. until used in binding assay. When used in the assay, cells were thawed on ice for 20 minutes and then 10 mL of incubation buffer (50 mM Tris, 1 mM EDTA, 4 mM MgCl2, 5 mM KCl, 1.5 mM CaCl2, 120 mM NaCl, pH7.4) was added. […] Concentration of receptor protein was determined using the Pierce BCA assay.
(§2) Total Spiperone Binding Assay
(§3) The tubes were vortexed and incubated at room temperature for 90 minutes. The binding reaction was stopped by filtering using a Brandell Cell Harvester. The samples were filtered under vacuum over glass fibre filters (Whatman GF/B) presoaked for 2 hours in 0.3% polyethyleneimine (PEI) in 50 mM Tris buffer (pH7.4). The filters were then washed 3 times with 5 mL ice cold 50 mM Tris buffer (pH7.4). Individual filter disks were put in scintillation vials (Biovials, Bechman). Ready Protein Plus liquid scintillant (5 mL, Beckman) was added and the vials counted by liquid scintillation spectrophotometry (Beckman LSC 6500) after equilibrating for three hours at room temperature to determine total binding (BT).
Non-Specific Binding Assay for D4
The tubes were vortexed and incubated at room temperature for 90 minutes at which time the binding reaction was stopped by filtering. The filters were washed and counted using the same procedure as in the total binding assay described above to give the non-specific binding value (NSB).
(§4) Displacement Binding Assay
(§5) The incubation was started by the addition to 12×75 mm polypropylene tubes 500 μl (50 μg protein) membrane homogenate to a solution of 400 μl incubation buffer, 100 μl (0.25 final conc.) ^3 H-spiperone (90Ci/mmol, Amersham, diluted in borosilicate glass vial to) and […] of test compound that was prepared from 1 mM stock dissolved in DMSO and stored at -20° C. in polypropylene cryogenic storage vials until dilution in incubation buffer in borosilicate glass vials. The tubes were vortexed and incubated at room temperature for 90 minutes at which time the binding reaction was stopped by filtering. The filters were washed and counted using the same procedure as in the total binding assay described above to give the displacement binding value (BD).
IC50 was determined from an inhibition response curve, logit-log plot of %B/BO vs concentration of test compound.
(§6) Ki was calculated by the Cheng and Prustoff transformation: […]
(§7) where [L] is the concentration of ^3 H-spiperone used in the assay and KD is the to dissociation constant of ^3 H-spiperone determined independently under the same binding conditions.

[2] = target: T2, human D2 receptor (short isoform) (Homo sapiens, UniProt P14416); assay: D2 receptor binding, displacement of 3H-spiperone (GH4C1 cells), for D2/D4 selectivity; settings: for D2/D4: D4 selectivity, ratio D2/D4
T2 construct: membrane homogenate, 3H-spiperone displacement
Experimental: as §1
GH4 C1 (rat pituitary) cells stably transfected with the human D2 receptor (short isoform) were grown in CO2 independent media in roller bottles (1500 cm^2) for 10 days. 100 μM ZnSO4 was added to the cells (the D2 promoter being zinc inducible). After 16 hours, fresh media was added to allow the cells to recover for 24 hours. The cells were harvested using versene and then centrifuged in a Sorval centrifuge for 10 minutes, at 5000 rpm (GS3 rotor). Pellets were quickly frozen in liquid nitrogen and stored at -80° C. until used in the binding assays. When used in the assay, cells were thawed on ice for 20 minutes. […] 10 mL of incubation buffer was added to the pellets which were then vortexed, resuspended and homogenized with a Kinematica CH-6010 Kriens-LU homogenizer for 15 seconds at setting 7. The receptor protein concentration was determined using the Pierce BCA assay.
as §2
as §3, with “The incubation was started by the addition of 500 μl (50 μg protein) membrane homogenate to a solution of 900 μl incubation buffer and 100 μl (0.25 nM final conc.) ^3 H-spiperone (90 Ci/mmol Amersham diluted in borosilicate glass vial) in 12×75 mm polypropylene tubes. The tubes” for “The tubes”
Non-Specific Binding Assay for D2
This assay employed the same procedures as the non-specific binding assay for D4 with the exception that 2 μM (final conc.) of (-) sulpiride (Research Chemicals Inc.) was used in place of dopamine.
as §4, §5
Specific binding in the absence of test compound (BO) was the difference of total binding (BT) minus non-specific binding (NSB) and similarly specific binding (in the presence of test compound) (B) was the difference of displacement binding (BD) minus non-specific binding (NSB). IC50 was determined from an inhibition response curve, logit-log plot of %B/BO vs concentration of test compound.
as §6, §7

[3] = compared with corresponding 4-methyl piperazine compound

T2 sequence (P14416 with tags, fused parts or gaps DEL242-270): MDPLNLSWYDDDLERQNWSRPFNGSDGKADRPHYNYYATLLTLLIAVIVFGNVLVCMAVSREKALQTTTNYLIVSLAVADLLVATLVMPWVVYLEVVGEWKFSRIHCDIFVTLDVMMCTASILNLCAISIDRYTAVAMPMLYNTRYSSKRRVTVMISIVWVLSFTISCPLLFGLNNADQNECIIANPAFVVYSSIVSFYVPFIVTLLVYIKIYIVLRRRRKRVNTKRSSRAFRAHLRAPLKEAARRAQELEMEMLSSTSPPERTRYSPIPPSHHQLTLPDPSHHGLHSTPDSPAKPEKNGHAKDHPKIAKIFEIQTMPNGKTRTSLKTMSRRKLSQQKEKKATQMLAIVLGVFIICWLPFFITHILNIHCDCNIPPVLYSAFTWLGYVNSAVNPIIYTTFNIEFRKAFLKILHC

| SMILES | Ki [1] | D2/D4 [2] | D4 selectivity ([2]; compared with clozapine) | D4 affinity ([1]; compared with clozapine) | D4 affinity and selectivity ([1]; compared with clozapine) | D4 affinity and selectivity ([1]; compared with clozapine and the corresponding 4-methyl compound) | D4 affinity and selectivity [1, 3] | D4 selectivity [2, 3] |
| --- | --- | --- | --- | --- | --- | --- | --- | --- |
| Clc1ccc2c(c1)C=C(N1CCN(Cc3ccc4c(c3)OCO4)CC1)c1ccccc1S2 [2-chloro-10-(4-piperonyl-1-piperazinyl)dibenzo[b,f]thiepine] | 8.3 nM | 15.9 | better D4 selectivity than clozapine |  |  |  |  |  |
| Clc1ccc2c(c1)Nc1ccccc1N=C2N1CCN(Cc2ccc3c(c2)OCO3)CC1 [3-chloro-11-(4-piperonyl-1-piperazinyl)-5H-dibenzo[b,e][1,4]diazepine] | 23.5 nM | 24.9 | better D4 selectivity than clozapine |  |  |  |  |  |
| Clc1ccc2c(c1)N=C(N1CCN(Cc3ccc4c(c3)OCO4)CC1)c1ccccc1O2 [8-chloro-11-(4-piperonyl)-1-piperazinyl)dibenz[b,f][1,4]oxazepine] | 4 nM | 23.8 | better D4 selectivity than clozapine | better D4 affinity than clozapine | better D4 affinity and selectivity than clozapine | better than clozapine and the corresponding 4-methyl compound | better D4 affinity and selectivity than the corresponding 4-methyl piperazine compound | better D4selectivity than the corresponding 4-methyl piperazine compound |
| c1ccc2c(c1)N=C(N1CCN(Cc3ccc4c(c3)OCO4)CC1)c1ccccc1O2 [11-(4-piperonyl)-1-piperazinyl)-dibenz[b,f][1,4]oxazepine] | 30 nM | 32.7 | better D4 selectivity than clozapine |  |  |  | better D4 affinity and selectivity than the corresponding 4-methyl piperazine compound | better D4selectivity than the corresponding 4-methyl piperazine compound |
